Measured values: publication PMC4669708 (Cell Death & Disease, 2015)

How the values were obtained:
Test in all cases: c-ponatinib pulldown LC-MS/MS
Format in all cases: binding
JAK1 = JAK1 (Homo sapiens, UniProt P23458)
In short: (§1)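 Read-out: interaction P-value combining Mascot scores, Phenyx scores and spectral counts (Fisher's method), plus fold reduction of median spectral counts on free-compound competition. Proteins were enriched from 10 mg cell lysate on c-ponatinib beads, then trypsin-digested for LC-MS/MS.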

PLEKHF2 = biological target: T1, PLEKHF2 (Homo sapiens, UniProt Q9H8W4)
T1 sequence (Q9H8W4 1-249): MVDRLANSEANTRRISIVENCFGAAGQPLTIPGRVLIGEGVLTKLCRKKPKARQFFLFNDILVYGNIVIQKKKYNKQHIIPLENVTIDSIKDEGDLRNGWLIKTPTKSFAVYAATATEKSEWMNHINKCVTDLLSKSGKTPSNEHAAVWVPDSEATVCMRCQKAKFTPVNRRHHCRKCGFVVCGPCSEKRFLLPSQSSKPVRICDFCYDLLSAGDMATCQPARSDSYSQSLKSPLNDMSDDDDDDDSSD
In short: as §1

YWHAH = biological target: T2, YWHAH (Homo sapiens, UniProt Q04917)
T2 sequence (Q04917 1-246): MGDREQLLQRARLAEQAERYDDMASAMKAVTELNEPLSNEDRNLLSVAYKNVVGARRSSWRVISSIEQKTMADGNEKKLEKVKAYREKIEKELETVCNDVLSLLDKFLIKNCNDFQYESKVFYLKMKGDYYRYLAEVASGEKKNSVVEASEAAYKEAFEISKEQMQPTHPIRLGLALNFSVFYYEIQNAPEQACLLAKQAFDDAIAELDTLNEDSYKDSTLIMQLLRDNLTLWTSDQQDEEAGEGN
In short: as §1

MAPKAPK2 = MAPKAPK2 (Homo sapiens, UniProt P49137)
In short: as §1

Chain of JAK1 (P23458 whole entry): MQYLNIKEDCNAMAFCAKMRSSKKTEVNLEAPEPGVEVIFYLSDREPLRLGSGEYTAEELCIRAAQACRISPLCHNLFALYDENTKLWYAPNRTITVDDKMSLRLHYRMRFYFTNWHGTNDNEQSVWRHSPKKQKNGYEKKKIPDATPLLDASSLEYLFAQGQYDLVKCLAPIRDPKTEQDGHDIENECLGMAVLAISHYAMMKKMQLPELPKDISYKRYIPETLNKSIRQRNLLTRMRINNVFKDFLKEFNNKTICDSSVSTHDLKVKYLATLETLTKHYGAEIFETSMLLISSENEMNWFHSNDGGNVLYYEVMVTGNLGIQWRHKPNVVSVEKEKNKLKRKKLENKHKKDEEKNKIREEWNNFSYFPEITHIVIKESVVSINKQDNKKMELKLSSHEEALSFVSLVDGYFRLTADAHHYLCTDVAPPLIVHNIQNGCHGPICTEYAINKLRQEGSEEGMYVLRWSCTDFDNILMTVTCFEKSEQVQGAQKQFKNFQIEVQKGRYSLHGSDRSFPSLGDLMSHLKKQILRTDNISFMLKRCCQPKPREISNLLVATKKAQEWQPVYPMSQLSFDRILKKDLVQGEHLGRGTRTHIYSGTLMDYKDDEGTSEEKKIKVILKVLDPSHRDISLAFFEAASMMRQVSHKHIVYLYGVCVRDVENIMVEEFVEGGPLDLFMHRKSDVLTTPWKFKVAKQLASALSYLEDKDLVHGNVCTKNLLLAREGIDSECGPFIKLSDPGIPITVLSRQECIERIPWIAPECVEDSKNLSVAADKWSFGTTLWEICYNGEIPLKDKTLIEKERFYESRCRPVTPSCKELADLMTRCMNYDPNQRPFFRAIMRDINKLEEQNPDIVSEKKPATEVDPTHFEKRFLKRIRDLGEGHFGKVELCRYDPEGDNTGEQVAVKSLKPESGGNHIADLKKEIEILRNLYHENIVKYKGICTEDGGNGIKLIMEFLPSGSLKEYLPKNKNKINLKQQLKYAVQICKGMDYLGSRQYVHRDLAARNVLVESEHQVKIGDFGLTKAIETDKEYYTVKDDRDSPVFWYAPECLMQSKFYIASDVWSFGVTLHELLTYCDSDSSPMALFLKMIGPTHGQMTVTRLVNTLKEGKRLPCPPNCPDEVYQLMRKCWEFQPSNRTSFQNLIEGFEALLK
Chain of MAPKAPK2 (P49137 whole entry): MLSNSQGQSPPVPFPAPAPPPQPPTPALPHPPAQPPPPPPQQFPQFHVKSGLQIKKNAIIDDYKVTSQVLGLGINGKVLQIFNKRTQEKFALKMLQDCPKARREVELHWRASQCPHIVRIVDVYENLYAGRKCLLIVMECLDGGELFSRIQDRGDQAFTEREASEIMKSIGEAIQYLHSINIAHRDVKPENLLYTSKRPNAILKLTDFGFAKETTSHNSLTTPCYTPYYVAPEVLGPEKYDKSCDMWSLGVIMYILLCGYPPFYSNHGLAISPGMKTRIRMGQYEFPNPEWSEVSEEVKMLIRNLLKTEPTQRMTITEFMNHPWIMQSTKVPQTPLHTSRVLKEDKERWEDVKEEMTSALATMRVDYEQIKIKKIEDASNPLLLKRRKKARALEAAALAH

Av. SC comp. (JAK1; + free ponatinib): 0
Total SC comp. (JAK1; + free ponatinib): 0
Av. SC (JAK1; no competitor): 21.5
Total SC (JAK1; no competitor): 86
Av. SC comp. (PLEKHF2; + free ponatinib): 0
Total SC comp. (PLEKHF2; + free ponatinib): 0
Av. SC (PLEKHF2; no competitor): 8.25
Total SC (PLEKHF2; no competitor): 33
Av. SC comp. (YWHAH; + free ponatinib): 0.25
Total SC comp. (YWHAH; + free ponatinib): 1
Av. SC (YWHAH; no competitor): 6
Total SC (YWHAH; no competitor): 24
Av. SC comp. (MAPKAPK2; + free ponatinib): 0
Total SC comp. (MAPKAPK2; + free ponatinib): 0
Av. SC (MAPKAPK2; no competitor): 23.5
Total SC (MAPKAPK2; no competitor): 94
SMILES: Cc1ccc(C(=O)Nc2ccc(CN3CCN(CCCN)CC3)c(C(F)(F)F)c2)cc1C#Cc1cnc2cccnn12 [c-ponatinib]
